Target: T1, XiaK (Streptomyces sp. SCSIO 02999, UniProt I3VFC1)
T1 sequence (I3VFC1 1-596): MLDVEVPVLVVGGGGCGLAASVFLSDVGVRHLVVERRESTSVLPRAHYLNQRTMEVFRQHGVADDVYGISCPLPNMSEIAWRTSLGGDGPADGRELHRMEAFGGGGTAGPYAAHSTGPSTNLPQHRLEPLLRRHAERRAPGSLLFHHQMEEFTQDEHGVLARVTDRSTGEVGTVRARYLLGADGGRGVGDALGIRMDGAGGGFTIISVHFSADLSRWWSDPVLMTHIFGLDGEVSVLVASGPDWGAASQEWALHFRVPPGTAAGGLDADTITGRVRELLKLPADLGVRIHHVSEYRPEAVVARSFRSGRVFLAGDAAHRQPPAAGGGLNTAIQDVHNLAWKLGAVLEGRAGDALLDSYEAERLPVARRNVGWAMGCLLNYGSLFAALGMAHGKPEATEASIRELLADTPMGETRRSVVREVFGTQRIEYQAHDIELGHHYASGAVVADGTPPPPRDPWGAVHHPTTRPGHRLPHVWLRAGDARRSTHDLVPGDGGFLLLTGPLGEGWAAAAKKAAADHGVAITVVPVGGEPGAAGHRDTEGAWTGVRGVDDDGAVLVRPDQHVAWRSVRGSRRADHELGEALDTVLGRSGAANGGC
Assay: release of bound flavin by heat denaturation of purified protein
Format: binding
Conditions: noncovalently bound, co-purified cofactor

## Cc1cc2nc3c(=O)[nH]c(=O)nc-3n(C[C@H](O)[C@H](O)[C@H](O)COP(=O)(O)OP(=O)(O)OC[C@H]3O[C@@H](n4cnc5c(N)ncnc54)[C@H](O)[C@@H]3O)c2cc1C [FAD]
  release of bound flavin by heat denaturation of purified protein: released the noncovalently-bound flavin adenosine dinucleotide (FAD) cofactor upon heat denaturation

— PMC5613243 (Chemical Science, 2017)
